Reference: US10189796B2, “[4-(1,3,3-trimethyl-2-oxo-3,4-dihydro-1H-quinoxalin-7-yl)phenoxy]ethyloxy compound or salt thereof” (SANTEN PHARMACEUTICAL CO., LTD., priority 2015, dated 2019)

What was measured:
[1] = target: Recombinant human GR (Homo sapiens (Human), UniProt P04150); assay: GR competitive binding assay by fluorescence polarization; settings: 20 μM test compound solution, 10 μL/well; 2 hours; DEX positive control; read-out: GR binding rate (%)
Experimental: In order to evaluate a binding activity of the present compound to GR, a GR receptor competitor assay was carried out by a fluorescence polarization method. In the assay, a GR competitive binding assay kit (manufactured by Invitrogen, cat No. P2816) was used for the assay, and a procedure was carried out according to the protocol attached to the kit. Hereinafter, the specific method will be described.
GR screening buffer: A buffer containing 10 mM of potassium phosphate (pH 7.4), 20 mM of sodium molybdate (Na2MoO4), 0.1 mM of ethylene diamine tetraacetic acid (EDTA), 5 mM of dithiothreitol (DTT), 0.1 mM of stabilizing peptide and 2% of dimethylsulfoxide was prepared.
4×GS1 solution: Fluormone™ GS1, which is a fluorescent glucocorticoid ligand, was diluted with GR screening buffer, whereby a 4 nM solution was prepared.
4×GR solution: Recombinant human GR was diluted with GR screening buffer, whereby a 16 nM solution was prepared.
After a test compound was dissolved in dimethylsulfoxide, the resulting solution was diluted with GR screening buffer, whereby a 20 μM test compound solution was prepared. In addition, DEX was similarly dissolved, whereby a DEX solution with a […] concentration was prepared, and the solution was diluted with GR screening buffer, whereby a 2 mM DEX solution was prepared. DEX was used as positive control.
• 1) The test compound solution was added in an amount of 10 μL into each well of a 384-well plate. • 2) 4×GS1 solution and 4×GR solution were added in an amount of 5 μL into each well, respectively. • 3) GR screening buffer was added in an amount of 10 μL/well into each well in place of the test compound solution, which was made a negative control. • 4) A 2 mM of DEX was added in an amount of 10 μL/well into each well in place of the test compound solution, which was made a positive control. • 5) The plate was incubated in a dark place at room temperature for 2 hours, and fluorescence polarization of each well was measured. (Calculation Equation of GR Binding Ratio)
A GR binding ratio (%) was calculated from the following equation. GR binding ratio (%)=100×{1−(fluorescence polarization of test compound solution−average value of fluorescence polarization of positive control solution)/(average value of fluorescence polarization of negative control solution−average value of fluorescence polarization of positive control solution)}

[2] = system: TNFα production in rat whole blood; assay: TNFα production inhibitory action evaluation test (LPS stimulation ex vivo, ELISA); assay type: cell-based; settings: 20 hours, 200 μM test compound solution 10 μL/well, DEX treated group = 100, read-out: TNFα production inhibitory ratio (% DEX)
Experimental: In order to evaluate an action of the present compound as a GR agonist, a TNFα production inhibitory action in rat whole blood after LPS stimulation ex vivo was investigated. For the measurement of the TNFα production amount, the ELISA method (manufactured by R&D Systems, Cat No. RTA00) was used, and a procedure was carried out according to the protocol attached thereto. Hereinafter, the specific method will be described.
LPS solution: LPS was dissolved in PBS(−) and diluted with RPMI 1640 to prepare an LPS solution with a concentration of 2 μg/mL.
After the test compound was dissolved in dimethylsulfoxide, the solution was diluted with PBS(−) to prepare 200 μM of a test compound solution. In addition, DEX was similarly dissolved to prepare 200 μM of a DEX solution, and a TNFα production inhibitory ratio of DEX was measured, and used for calculation of Efficacy (% DEX).
• 1) Blood was collected from 3 to 5 rats using an injection syringe treated with heparin from the abdominal aorta under isoflurane anesthesia. The rats confirmed death after lething the whole blood. • 2) The blood of 3 to 5 rats pooled in a 96-well round bottom culture plate was seeded at each 180 μL/well. • 3) It was cultured (37° C., 5% CO2, 95% air) for about 1 hour. • 4) The test compound solution was added each 10 μL/well, and cultured for 1 hour. • 5) LPS solution was added each 10 μL/well. • 6) The sample in which 2% dimethylsulfoxide-containing PBS(−) was added with each 10 μL/well in place of each test compound solution, and RPMI 1640 was added with each 10 μL/well in place of the LPS solution was made a negative control. • 7) The sample in which 2% dimethylsulfoxide-containing PBS(−) was added with each 10 μL/well in place of each test compound solution was made a positive control. • 8) After completion of 20 hours cultivation, the supernatant was recovered and the amount of TNFα released in the supernatant was measured by using an ELISA Kit. • 9) The TNFα production inhibitory ratio was calculated according to the following calculation formula. (Calculation of TNFα Production Inhibitory Ratio)
TNFα production inhibitory ratio (%) was calculated according to the following formula. TNFα production inhibitory ratio (%)=100×{1−(TNFα production amount of each test compound solution−average value of TNFα production amount of negative control group)/(average value of TNFα production amount of positive control group−average value of TNFα production amount of negative control group)}(%)
Further, a TNFα production inhibitory ratio (Efficacy (% DEX)) when the DEX treated group was made 100 was calculated. Efficacy (% DEX)=100×{(average value of TNFα production inhibitory ratio of each test compound solution)/(average value of TNFα production inhibitory ratio of DEX treated group)}(%)

[3] = system: ovalbumin actively sensitized allergic conjunctivitis model of rabbits; assay: Allergic conjunctivitis model evaluation test; assay type: in vivo, rabbit; settings: 1% suspension, eye drop 50 μL four times a day for 4 days plus once; 0.5 hour after challenge
Experimental: In order to evaluate an anti-allergic action of the present compounds on allergic conjunctivitis, an inhibitory effect on hyperemia in an ovalbumin actively sensitized allergic conjunctivitis model of rabbits was investigated. Incidentally, this effect was evaluated by calculating an inhibitory ratio from the score of the base agent administered group (control group) and the score of the test compound administered group.
A base agent containing a general additive(s) was added to the test compound to prepare test compound suspensions with 1% (WN) and 3% (W/V).
By using male JW rabbits, ovalbumin (200 μg/mL/physiological saline solution) adsorbed on aluminum hydroxide gel was injected 200 μL per eye into bulbar conjunctiva of both eyes of rabbits, respectively, to perform active sensitization.
After 14 days from sensitization or later, the test compound suspension was eye-dropped four times a day for 4 days, and then, at the next day, it was eye-dropped (instillation dose: 50 μL/time) once to both eyes. Incidentally, the base agent was similarly eye-dropped to the base agent administered group (control group).
One hour after the final eye dropping of the test compound suspension, a physiological saline solution containing 0.02% (W/V) of ovalbumin was administered from rabbit ear vein at a dose of 1.5 mL per 1 kg of rabbit to induce allergic conjunctivitis.
After 0.5 hour of the challenge, the degree of hyperemia symptoms of both ocular conjunctiva of rabbits was evaluated according to the following criteria, and the average value of the total of these scores was calculated. […]

Chain of Recombinant human GR (P04150 whole entry): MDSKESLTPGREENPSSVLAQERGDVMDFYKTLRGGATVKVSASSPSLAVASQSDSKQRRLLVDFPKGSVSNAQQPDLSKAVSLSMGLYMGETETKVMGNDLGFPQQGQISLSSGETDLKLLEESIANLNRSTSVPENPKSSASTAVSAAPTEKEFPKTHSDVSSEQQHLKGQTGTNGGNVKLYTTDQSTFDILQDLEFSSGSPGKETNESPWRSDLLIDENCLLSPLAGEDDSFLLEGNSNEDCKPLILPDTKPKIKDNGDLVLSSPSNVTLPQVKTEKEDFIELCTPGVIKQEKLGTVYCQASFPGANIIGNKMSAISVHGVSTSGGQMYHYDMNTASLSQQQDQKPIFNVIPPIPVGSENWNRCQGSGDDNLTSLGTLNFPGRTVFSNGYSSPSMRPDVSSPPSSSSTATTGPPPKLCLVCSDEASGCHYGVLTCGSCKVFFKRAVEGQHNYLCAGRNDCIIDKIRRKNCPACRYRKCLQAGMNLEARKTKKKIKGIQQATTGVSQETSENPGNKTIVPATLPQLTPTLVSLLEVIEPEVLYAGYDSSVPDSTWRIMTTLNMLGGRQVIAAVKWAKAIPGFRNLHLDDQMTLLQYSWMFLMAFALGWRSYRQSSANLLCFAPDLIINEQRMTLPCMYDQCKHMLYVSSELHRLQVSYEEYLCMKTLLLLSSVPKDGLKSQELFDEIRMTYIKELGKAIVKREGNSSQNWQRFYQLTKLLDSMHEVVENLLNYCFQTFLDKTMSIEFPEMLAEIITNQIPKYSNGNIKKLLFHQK

COc1cc(OC[C@H](C)OP(=O)(O)O)ccc1-c1ccc2c(c1COc1cc(F)ccc1C)N(C)C(=O)C(C)(C)N2 [Compound 14-1, (S)-8-(5-fluoro-2-methylphenoxymethyl)-7-[4-(2-phosphonohydroxypropyl)oxy-2-methoxyphenyl]-1,3,3-trimethyl-3,4-dihydro-1H-quinoxalin-2-one]
inhibition at 10 µM [1]: > 99%
Emax [2]: 86%
Eye congestion inhibitory ratio (%) [3]: 22%
